Reference: PubChem BioAssay AID1963862 (Molecular Pharmacology Branch, DTP, NCI, 2024)

System: KRAS patient-derived spheroids with HUVEC/MSC, viability
Assay: Anticancer human tumor 941728-121-R-J1-PDC patient-derived lung adenocarcinoma cell line growth inhibition [KRAS2]
Details: for IC50: curve of first compound; for viability, T/C: stronger effect = lower value
Method in brief: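 Combination screen of spheroid viability in tumor-cell co-cultures with endothelial (HUVEC) and mesenchymal stem cell stroma. Each agent was tested in half-log dilutions, topping at clinical Cmax or at 10 microM without a known Cmax.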

[1] = second compound 0.1 µM, first compound 0.0316 µM
[2] = second compound 0.1 µM, first compound 0.1 µM
[3] = second compound 0.316 µM, first compound 0.0316 µM
[4] = second compound 0.316 µM, first compound 0.1 µM
[5] = second compound 1 µM, first compound 0.0316 µM
[6] = second compound 1 µM, first compound 0.1 µM
[7] = second compound 3.16 µM, first compound 0.0316 µM
[8] = second compound 3.16 µM, first compound 0.1 µM
[9] = second compound 10 µM, first compound 0.0316 µM
[10] = second compound 10 µM, first compound 0.1 µM
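Also: spheroids exposed to agents for seven days before readout.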

CN(C)C/C=C/C(=O)Nc1cc2c(Nc3ccc(F)c(Cl)c3)ncnc2cc1O[C@H]1CCOC1 + CC1OCC2(CCN(c3cnc(Sc4ccnc(N)c4Cl)c(N)n3)CC2)C1N
IC50 (second compound 0.1 µM): < 0.316 nM | IC50 (second compound 0.316 µM): < 0.316 nM | IC50 (second compound 1 µM): > 100 nM | IC50 (second compound 3.16 µM): < 0.316 nM | IC50 (second compound 10 µM): 0.52 nM | viability, T/C (second compound 0.1 µM, first compound 0.000316 µM): 38.3% | viability, T/C (second compound 0.1 µM, first compound 0.001 µM): 41.9% | viability, T/C (second compound 0.1 µM, first compound 0.00316 µM): 45.5% | viability, T/C (second compound 0.1 µM, first compound 0.01 µM): 44.5% | viability, T/C [1]: 41.4% | viability, T/C [2]: 43.3% | viability, T/C (second compound 0.316 µM, first compound 0.000316 µM): 33.7% | viability, T/C (second compound 0.316 µM, first compound 0.001 µM): 35.2% | viability, T/C (second compound 0.316 µM, first compound 0.00316 µM): 43.1% | viability, T/C (second compound 0.316 µM, first compound 0.01 µM): 42.3% | viability, T/C [3]: 45.8% | viability, T/C [4]: 41.2% | viability, T/C (second compound 1 µM, first compound 0.000316 µM): 70.1% | viability, T/C (second compound 1 µM, first compound 0.001 µM): 52.4% | viability, T/C (second compound 1 µM, first compound 0.00316 µM): 63.1% | viability, T/C (second compound 1 µM, first compound 0.01 µM): 70.6% | viability, T/C [5]: 58.4% | viability, T/C [6]: 51.9% | viability, T/C (second compound 3.16 µM, first compound 0.000316 µM): 29.7% | viability, T/C (second compound 3.16 µM, first compound 0.001 µM): 28.3% | viability, T/C (second compound 3.16 µM, first compound 0.00316 µM): 30.2% | viability, T/C (second compound 3.16 µM, first compound 0.01 µM): 31.6% | viability, T/C [7]: 31.3% | viability, T/C [8]: 36.7% | viability, T/C (second compound 10 µM, first compound 0.000316 µM): 54.6% | viability, T/C (second compound 10 µM, first compound 0.001 µM): 45% | viability, T/C (second compound 10 µM, first compound 0.00316 µM): 30.6% | viability, T/C (second compound 10 µM, first compound 0.01 µM): 52.5% | viability, T/C [9]: 31.3% | viability, T/C [10]: 31%

CCNC(=O)CC1N=C(c2ccc(Cl)cc2)c2cc(OC)ccc2-n2c(C)nnc21 (stereo not given) + COc1cc2nc(C)nc(NC(C)c3cc(N)cc(C(F)(F)F)c3)c2cc1OC1CCOC1
IC50 (second compound 0.1 µM): 36.2 nM | IC50 (second compound 0.316 µM): < 31.6 nM | IC50 (second compound 1 µM): < 31.6 nM | IC50 (second compound 3.16 µM): < 31.6 nM | IC50 (second compound 10 µM): < 31.6 nM | viability, T/C [1]: 49.5% | viability, T/C [2]: 48.2% | viability, T/C (second compound 0.1 µM, first compound 0.316 µM): 30.6% | viability, T/C (second compound 0.1 µM, first compound 1 µM): 16.1% | viability, T/C (second compound 0.1 µM, first compound 3.16 µM): 11.1% | viability, T/C (second compound 0.1 µM, first compound 10 µM): 9.43% | viability, T/C [3]: 46.2% | viability, T/C [4]: 42.6% | viability, T/C (second compound 0.316 µM, first compound 0.316 µM): 34.4% | viability, T/C (second compound 0.316 µM, first compound 1 µM): 12.6% | viability, T/C (second compound 0.316 µM, first compound 3.16 µM): 9.51% | viability, T/C (second compound 0.316 µM, first compound 10 µM): 9.32% | viability, T/C [5]: 45.1% | viability, T/C [6]: 40.7% | viability, T/C (second compound 1 µM, first compound 0.316 µM): 29.2% | viability, T/C (second compound 1 µM, first compound 1 µM): 8.81% | viability, T/C (second compound 1 µM, first compound 3.16 µM): 7.25% | viability, T/C (second compound 1 µM, first compound 10 µM): 6.02% | viability, T/C [7]: 38.3% | viability, T/C [8]: 33% | viability, T/C (second compound 3.16 µM, first compound 0.316 µM): 23.5% | viability, T/C (second compound 3.16 µM, first compound 1 µM): 8.14% | viability, T/C (second compound 3.16 µM, first compound 3.16 µM): 7.37% | viability, T/C (second compound 3.16 µM, first compound 10 µM): 8.71% | viability, T/C [9]: 20.3% | viability, T/C [10]: 13.9% | viability, T/C (second compound 10 µM, first compound 0.316 µM): 14.2% | viability, T/C (second compound 10 µM, first compound 1 µM): 3.3% | viability, T/C (second compound 10 µM, first compound 3.16 µM): 2.65% | viability, T/C (second compound 10 µM, first compound 10 µM): 1.91%
